In ChEMBL document CHEMBL1201862, “PubChem BioAssay data set” (2004):
Active and inactive are the calls of the source.

Columns and labels:
[1] = A549 cell cytotoxicity, dose response, cytotoxicity control, plate reader, cherry-pick, antagonist series (AID 743412); assay type: functional, cell-based
BJ [2] = assay: cells; assay type: functional, cell-based; conditions: Homo sapiens
[3] = LGR2 antagonists, dose response, cell-based, HEK293, CRE-luciferase reporter, cherry pick, set 2 (AID 743343); assay type: functional;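 note: transfected cells were stimulated with diluted bursicon conditioned medium after compound addition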
[4] = MC4R antagonists, dose response, counter-screen for LGR2 antagonist project, cell-based, plate reader, cherry pick (AID 743444); assay type: functional;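 note: transfected HEK 293 cells stimulated with alpha-MSH peptide; potency of inhibitors of the alpha-MSH evoked signal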
[5] = cytotoxicity toward DRD oncogenic fibroblasts, dose response, cell-based, non-viral oncogenic, luminescence (AID 1934); assay type: functional; conditions: Homo sapiens
BJ [6] = assay: cytotoxicity toward BJ-TERT fibroblasts, dose response, cell-based, RAS-independent, luminescence (AID 1933); assay type: functional; conditions: Homo sapiens
BJ [7] = assay: cytotoxicity toward BJ-TERT-LT-ST fibroblasts, dose response, cell-based, RAS-independent, luminescence (AID 1935); assay type: functional; conditions: Homo sapiens;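 note: BJ fibroblasts immortalized with TERT plus LT and ST oncogenes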
[8] = HepG2 cell cytotoxicity, dose response, cytotoxicity control, plate reader, cherry-pick, antagonist series (AID 743416); assay type: functional, cell-based
[9] = HEK293 cell cytotoxicity, dose response, cytotoxicity control, plate reader, cherry-picked samples (AID 743446); assay type: functional, cell-based
[10] = molecular target: T1, E3 ubiquitin-protein ligase XIAP (Homo sapiens, UniProt P98170); assay: Counter Screen using XIAP-Bir3 for Chemical Antagonists of Bir1/2 domains of IAP-family anti-apoptotic proteins. [Related pubchem assays (depositor defined):AID1018, AID1449, AID1514, AID1638, AID1749, AID1750, AID488957, AID488963]
T1 sequence (P98170 whole entry): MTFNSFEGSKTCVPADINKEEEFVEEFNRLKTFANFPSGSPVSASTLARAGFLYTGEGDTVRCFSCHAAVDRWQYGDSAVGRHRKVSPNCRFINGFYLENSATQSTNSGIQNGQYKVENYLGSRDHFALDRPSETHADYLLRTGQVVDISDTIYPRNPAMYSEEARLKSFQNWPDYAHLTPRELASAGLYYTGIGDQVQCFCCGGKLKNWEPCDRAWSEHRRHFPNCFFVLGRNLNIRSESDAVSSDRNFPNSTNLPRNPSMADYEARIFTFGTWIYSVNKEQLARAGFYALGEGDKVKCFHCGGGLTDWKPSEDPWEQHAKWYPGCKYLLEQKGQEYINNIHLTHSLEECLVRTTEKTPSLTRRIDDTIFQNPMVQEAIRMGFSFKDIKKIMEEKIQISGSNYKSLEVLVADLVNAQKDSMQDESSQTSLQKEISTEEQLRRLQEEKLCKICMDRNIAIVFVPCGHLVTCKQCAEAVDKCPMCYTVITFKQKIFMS

[11] = molecular target: T2, Heat shock factor protein 1 (Mus musculus, UniProt P38532); assay: inhibition of MG132-induced HSE-luciferase signal, confirmation, cell-based, NIH3T3, luminescence, dose retest (AID 2382); assay type: functional;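 note: NIH3T3 fibroblasts with HSF1-driven luciferase reporter stressed by proteasome inhibitor MG132; luminescence from HSF1-driven luciferase expression after 8 hours of MG132 stress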
T2 sequence (P38532 whole entry): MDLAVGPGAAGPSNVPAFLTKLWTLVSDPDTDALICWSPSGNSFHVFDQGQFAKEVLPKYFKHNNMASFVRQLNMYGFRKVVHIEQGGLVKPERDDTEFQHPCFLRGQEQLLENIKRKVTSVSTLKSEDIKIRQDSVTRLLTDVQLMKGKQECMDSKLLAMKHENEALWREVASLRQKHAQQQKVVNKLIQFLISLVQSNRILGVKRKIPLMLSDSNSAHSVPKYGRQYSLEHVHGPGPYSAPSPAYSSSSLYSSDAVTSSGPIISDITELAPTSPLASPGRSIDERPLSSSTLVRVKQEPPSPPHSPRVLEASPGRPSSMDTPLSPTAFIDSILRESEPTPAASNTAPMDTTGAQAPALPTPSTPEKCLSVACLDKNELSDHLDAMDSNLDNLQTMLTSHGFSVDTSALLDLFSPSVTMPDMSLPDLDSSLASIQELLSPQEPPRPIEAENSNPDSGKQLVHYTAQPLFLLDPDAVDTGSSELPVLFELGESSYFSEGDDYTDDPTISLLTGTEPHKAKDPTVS

[12] = molecular target: T1, E3 ubiquitin-protein ligase XIAP; assay: XIAP antagonists, biochemical, IAP family, fluorescence polarization (AID 1018); assay type: functional
Estrogen receptor beta = Estrogen receptor beta (Homo sapiens, UniProt Q92731); assay: ERβ–SRC-3 coactivator interaction inhibitors, confirmation, orthogonal assay, biochemical, ELISA, streptavidin-HRP readout (AID 1060)
[13] = molecular target: T3, RNA-binding protein pos-1 (Caenorhabditis elegans, UniProt G5EF15); assay: inhibitors of POS-1/mex-3 RNA binding, dose response, biochemical, fluorescence polarization (AID 1964);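 note: purified POS-1 fused to maltose binding protein made in E. coli; potency of compounds blocking POS-1 binding to fluorescent RNA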
T3 sequence (G5EF15 whole entry): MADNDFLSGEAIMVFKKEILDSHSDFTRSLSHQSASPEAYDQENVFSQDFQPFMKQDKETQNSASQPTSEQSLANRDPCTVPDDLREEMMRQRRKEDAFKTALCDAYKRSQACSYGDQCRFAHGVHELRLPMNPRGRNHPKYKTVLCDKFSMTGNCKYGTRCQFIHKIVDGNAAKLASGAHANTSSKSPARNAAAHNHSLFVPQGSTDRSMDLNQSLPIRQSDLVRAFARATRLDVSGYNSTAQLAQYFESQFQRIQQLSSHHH

[14] = molecular target: T4, Histone-lysine N-methyltransferase NSD2 (Homo sapiens, UniProt O96028); assay type: biochemical
T4 sequence (O96028 whole entry): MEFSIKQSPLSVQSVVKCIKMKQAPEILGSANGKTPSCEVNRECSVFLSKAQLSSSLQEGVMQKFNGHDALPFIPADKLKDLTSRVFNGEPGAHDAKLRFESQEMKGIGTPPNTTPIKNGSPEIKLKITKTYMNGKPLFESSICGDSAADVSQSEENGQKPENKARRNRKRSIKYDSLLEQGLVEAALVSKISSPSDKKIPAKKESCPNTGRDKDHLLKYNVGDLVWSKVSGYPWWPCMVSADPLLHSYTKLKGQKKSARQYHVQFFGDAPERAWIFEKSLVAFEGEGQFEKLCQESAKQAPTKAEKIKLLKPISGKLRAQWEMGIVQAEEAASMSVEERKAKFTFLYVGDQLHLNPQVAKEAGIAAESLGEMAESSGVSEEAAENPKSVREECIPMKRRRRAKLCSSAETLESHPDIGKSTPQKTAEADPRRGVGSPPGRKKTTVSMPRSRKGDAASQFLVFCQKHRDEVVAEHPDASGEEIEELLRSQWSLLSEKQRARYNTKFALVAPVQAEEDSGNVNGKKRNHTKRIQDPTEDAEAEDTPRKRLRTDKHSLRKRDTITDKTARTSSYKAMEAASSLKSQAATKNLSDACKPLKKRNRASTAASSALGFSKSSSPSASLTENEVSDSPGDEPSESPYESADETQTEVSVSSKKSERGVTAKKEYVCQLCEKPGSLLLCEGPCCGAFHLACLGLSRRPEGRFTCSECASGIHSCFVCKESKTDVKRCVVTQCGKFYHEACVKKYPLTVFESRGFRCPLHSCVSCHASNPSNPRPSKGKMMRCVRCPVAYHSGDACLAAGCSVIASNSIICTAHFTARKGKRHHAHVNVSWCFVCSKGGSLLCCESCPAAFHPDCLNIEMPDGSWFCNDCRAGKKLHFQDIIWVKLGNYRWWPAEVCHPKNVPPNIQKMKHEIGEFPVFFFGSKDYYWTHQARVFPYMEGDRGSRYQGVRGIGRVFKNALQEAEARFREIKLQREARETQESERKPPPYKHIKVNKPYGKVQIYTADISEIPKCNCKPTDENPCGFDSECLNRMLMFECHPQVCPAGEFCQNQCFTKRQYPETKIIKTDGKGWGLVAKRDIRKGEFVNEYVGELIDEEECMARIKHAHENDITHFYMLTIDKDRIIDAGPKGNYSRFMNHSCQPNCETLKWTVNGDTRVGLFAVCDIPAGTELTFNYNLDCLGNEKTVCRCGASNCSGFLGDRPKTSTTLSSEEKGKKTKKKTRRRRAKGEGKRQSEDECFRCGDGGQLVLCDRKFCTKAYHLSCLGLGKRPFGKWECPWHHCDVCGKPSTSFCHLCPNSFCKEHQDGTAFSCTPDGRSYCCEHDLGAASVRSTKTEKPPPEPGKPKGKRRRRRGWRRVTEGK

[15] = molecular target: T5, Zinc finger protein mex-5 (Caenorhabditis elegans, UniProt Q9XUB2); assay: MEX-5/TCR-2 RNA interaction inhibitors, dose response, biochemical, C. elegans, fluorescence polarization (AID 1960)
T5 sequence (Q9XUB2 whole entry): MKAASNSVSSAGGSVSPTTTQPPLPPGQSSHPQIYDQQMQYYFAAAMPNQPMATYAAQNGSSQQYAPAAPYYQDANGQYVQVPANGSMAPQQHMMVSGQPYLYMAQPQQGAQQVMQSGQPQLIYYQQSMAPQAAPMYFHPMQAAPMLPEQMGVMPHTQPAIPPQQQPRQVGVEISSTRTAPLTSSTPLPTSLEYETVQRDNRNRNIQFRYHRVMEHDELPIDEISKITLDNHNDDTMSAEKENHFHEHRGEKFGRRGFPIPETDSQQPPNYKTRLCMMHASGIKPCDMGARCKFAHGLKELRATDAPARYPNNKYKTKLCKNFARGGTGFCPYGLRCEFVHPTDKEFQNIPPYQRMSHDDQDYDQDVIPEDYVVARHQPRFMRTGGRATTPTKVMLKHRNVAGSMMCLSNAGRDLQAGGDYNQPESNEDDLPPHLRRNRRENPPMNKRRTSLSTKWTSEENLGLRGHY

[16] = molecular target: Peroxisome proliferator-activated receptor gamma/Nuclear receptor coactivator 1 (Homo sapiens, UniProt P37231); assay type: functional;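 note: agonist potency as compounds enhance coactivator SRC-1 recruitment to PPARgamma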
Chain of Peroxisome proliferator-activated receptor gamma/Nuclear receptor coactivator 1 (P37231 whole entry): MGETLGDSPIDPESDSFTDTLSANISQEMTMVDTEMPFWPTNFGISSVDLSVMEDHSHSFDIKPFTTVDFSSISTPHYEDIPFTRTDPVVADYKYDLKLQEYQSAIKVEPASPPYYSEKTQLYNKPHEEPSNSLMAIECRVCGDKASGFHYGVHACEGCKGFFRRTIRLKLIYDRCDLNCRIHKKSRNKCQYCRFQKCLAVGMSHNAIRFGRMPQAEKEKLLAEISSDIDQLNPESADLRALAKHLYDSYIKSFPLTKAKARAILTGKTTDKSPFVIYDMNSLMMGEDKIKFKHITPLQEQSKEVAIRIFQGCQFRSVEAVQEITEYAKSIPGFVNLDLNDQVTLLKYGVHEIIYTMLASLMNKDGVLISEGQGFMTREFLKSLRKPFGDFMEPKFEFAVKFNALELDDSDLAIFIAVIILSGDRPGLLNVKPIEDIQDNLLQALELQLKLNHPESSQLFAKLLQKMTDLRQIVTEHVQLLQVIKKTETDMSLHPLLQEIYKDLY
Chain of Peroxisome proliferator-activated receptor gamma/Nuclear receptor coactivator 1 (Q15788 whole entry, further chain): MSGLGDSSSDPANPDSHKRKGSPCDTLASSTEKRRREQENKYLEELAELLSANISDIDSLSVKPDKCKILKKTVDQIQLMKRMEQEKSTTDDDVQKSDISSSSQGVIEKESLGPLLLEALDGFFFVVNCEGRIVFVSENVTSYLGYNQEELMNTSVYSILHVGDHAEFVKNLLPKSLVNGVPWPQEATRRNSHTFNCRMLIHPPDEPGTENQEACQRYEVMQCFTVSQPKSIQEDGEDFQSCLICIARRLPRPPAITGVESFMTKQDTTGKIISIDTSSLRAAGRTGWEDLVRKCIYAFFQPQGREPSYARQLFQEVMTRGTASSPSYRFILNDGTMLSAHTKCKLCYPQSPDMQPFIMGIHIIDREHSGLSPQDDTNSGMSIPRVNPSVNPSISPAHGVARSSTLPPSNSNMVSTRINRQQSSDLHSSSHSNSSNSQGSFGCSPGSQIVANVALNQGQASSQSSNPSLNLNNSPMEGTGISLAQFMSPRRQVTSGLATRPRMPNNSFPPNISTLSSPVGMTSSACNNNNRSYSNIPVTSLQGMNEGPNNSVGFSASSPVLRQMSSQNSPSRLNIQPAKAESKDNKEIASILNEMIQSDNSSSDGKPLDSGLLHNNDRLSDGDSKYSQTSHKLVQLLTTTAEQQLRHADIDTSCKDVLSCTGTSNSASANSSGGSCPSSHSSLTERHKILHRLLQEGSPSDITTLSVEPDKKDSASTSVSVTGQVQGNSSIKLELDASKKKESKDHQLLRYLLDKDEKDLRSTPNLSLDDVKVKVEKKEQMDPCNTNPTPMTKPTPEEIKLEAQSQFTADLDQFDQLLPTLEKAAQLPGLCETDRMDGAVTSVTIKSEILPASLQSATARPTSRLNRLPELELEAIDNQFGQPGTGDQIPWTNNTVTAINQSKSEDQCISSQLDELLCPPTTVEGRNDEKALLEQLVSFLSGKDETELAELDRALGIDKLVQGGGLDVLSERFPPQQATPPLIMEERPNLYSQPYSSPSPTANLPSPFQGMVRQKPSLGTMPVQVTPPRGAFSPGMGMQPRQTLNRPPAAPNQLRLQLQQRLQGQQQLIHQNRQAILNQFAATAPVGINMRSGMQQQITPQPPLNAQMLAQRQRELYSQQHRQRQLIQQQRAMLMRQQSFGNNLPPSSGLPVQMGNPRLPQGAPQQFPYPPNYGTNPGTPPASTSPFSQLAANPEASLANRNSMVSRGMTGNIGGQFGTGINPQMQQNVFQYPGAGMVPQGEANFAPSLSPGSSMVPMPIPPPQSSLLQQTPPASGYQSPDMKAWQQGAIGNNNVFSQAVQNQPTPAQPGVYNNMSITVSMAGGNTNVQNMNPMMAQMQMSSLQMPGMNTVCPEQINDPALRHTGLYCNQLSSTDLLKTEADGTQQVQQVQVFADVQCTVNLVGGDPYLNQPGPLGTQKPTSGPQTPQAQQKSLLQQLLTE

[17] = molecular target: Peroxisome proliferator-activated receptor gamma/Nuclear receptor coactivator 3 (Homo sapiens, UniProt P37231); assay type: functional;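 note: agonist potency for raising coactivator recruitment to the receptor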
Chain of Peroxisome proliferator-activated receptor gamma/Nuclear receptor coactivator 3 (P37231 whole entry): as the sequence (P37231 whole entry) above
Chain of Peroxisome proliferator-activated receptor gamma/Nuclear receptor coactivator 3 (Q9Y6Q9 whole entry, further chain): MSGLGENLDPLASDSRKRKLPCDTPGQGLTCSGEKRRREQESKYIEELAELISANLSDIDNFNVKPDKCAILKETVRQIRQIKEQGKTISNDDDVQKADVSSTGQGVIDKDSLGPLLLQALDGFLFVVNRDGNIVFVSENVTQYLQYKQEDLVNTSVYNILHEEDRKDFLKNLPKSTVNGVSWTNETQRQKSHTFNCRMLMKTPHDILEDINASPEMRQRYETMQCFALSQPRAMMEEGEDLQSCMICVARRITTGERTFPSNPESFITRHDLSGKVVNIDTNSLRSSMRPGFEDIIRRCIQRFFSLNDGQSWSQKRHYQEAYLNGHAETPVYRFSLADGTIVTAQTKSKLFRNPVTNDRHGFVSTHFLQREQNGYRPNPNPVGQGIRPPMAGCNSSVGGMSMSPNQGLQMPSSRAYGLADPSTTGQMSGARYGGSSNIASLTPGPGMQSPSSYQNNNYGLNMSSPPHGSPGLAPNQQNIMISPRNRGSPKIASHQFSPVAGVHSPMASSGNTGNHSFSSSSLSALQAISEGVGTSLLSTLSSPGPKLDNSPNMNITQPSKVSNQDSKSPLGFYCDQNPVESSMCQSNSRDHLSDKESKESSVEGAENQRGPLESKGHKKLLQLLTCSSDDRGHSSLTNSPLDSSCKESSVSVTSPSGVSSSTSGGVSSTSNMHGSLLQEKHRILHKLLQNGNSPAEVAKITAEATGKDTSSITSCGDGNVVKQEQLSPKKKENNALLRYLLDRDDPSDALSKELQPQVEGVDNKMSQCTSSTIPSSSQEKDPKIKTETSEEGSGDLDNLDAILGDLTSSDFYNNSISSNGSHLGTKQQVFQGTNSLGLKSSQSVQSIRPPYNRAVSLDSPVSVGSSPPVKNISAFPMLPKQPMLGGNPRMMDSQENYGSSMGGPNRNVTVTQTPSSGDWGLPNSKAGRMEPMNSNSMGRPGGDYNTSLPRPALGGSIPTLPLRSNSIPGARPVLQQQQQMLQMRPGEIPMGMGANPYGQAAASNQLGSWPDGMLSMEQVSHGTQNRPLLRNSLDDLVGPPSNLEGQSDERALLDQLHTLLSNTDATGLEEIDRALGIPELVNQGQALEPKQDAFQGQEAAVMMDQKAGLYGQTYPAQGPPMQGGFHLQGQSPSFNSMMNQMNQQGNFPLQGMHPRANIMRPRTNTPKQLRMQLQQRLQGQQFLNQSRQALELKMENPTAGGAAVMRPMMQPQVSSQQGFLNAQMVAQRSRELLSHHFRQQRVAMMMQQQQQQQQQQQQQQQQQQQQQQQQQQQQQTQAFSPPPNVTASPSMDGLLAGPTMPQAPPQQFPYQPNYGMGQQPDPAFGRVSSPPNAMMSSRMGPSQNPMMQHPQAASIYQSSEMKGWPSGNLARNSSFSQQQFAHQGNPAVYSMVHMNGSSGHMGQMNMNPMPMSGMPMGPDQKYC

[18] = molecular target: Peroxisome proliferator-activated receptor gamma/Nuclear receptor coactivator 2 (Homo sapiens, UniProt P37231); assay type: functional;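 note: agonist potency for raising coactivator recruitment to the receptor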
[19] = HepG2 cell cytotoxicity, dose response, cytotoxicity control, ATP luminescence, cherry-pick, activator set 2 (AID 1053143); assay type: functional, cell-based
Protein Tat = molecular target: T6, Protein Tat (Human immunodeficiency virus type 1 group M subtype B (isolate HXB2)(HIV-1), UniProt P04608); assay type: functional;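 note: tat binding to TAR RNA read out by fluorescence polarization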
T6 sequence (P04608 whole entry): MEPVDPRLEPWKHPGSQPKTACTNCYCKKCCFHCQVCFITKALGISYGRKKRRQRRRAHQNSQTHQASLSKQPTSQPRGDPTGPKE

Bcl-2-related protein A1 [20] = molecular target: T7, Bcl-2-related protein A1 (Mus musculus, UniProt Q07440); assay: Bfl-1 inhibitors blocking BH3 peptide binding, confirmation, biochemical, TR-FRET, mouse Bfl-1 (AID 621);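 note: TR-FRET binding of GST-Bfl-1 to FITC-labelled Bid peptide via terbium antibody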
T7 sequence (Q07440 whole entry): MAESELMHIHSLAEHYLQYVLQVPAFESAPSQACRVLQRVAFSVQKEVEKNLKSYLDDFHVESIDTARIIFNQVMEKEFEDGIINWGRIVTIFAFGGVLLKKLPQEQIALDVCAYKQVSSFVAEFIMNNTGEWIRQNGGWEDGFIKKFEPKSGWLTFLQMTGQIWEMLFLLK

[21] = molecular target: Glyceraldehyde-3-phosphate dehydrogenase (Homo sapiens, UniProt P04406)
Chain of Glyceraldehyde-3-phosphate dehydrogenase (P04406 whole entry): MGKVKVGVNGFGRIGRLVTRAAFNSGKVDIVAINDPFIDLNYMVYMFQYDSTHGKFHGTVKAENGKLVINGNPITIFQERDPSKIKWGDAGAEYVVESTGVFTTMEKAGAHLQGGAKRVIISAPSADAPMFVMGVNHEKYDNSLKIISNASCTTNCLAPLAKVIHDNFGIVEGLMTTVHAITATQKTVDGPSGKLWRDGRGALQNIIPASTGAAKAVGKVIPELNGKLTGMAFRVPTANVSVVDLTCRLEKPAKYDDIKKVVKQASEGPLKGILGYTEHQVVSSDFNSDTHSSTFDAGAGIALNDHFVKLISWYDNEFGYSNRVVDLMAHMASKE

Bcl-2-related protein A1 [22] = molecular target: T7, Bcl-2-related protein A1; assay: Bfl-1 binding inhibitors, SAR follow-up, biochemical, fluorescence polarization (AID 1070)

CN(C)C(=O)Oc1ccc(OCc2nc3ccccc3[nH]2)cc1
AC50 [1]: 11.8 µM (active) | EC50 (BJ [2]): 11.2 µM (inconclusive) | AC50 [3]: 6.62 µM (active) | AC50 [4]: 6.14 µM (active) | EC50 [5]: 8.55 µM (inconclusive) | EC50 (BJ [6]): 8.38 µM (inconclusive) | EC50 (BJ [7]): 22.3 µM (active) | AC50 [8]: 13.8 µM (active) | AC50 [9]: 10.2 µM (active)

N#CC1(C#N)COC23CCCCC2C1(C#N)C(=N)O3 (centres undefined)
IC50 [10]: > 100 µM (inactive) | EC50 [11]: > 195 µM (not active) | IC50 [12]: > 100 µM (not active)

Cc1ccc(N(CC(=O)N/N=C/c2cccc(Br)c2)S(C)(=O)=O)cc1
IC50 [10]: > 100 µM (inactive) | IC50 [12]: > 100 µM (not active)

COC(=O)c1ccc(NC(=O)CSc2nc(C)cc(=O)[nH]2)cc1
IC50 (Estrogen receptor beta): > 50 µM (not active)

O=C(O)c1cccc(-n2cccc2/C=C\[N+](=O)[O-])c1
EC50 [13]: 83.7 µM (active) | AC50 [14]: > 20 µM (inactive) | EC50 [15]: 40.8 µM (active)

CC(C)CC1(C(=O)O)NC(c2ccccc2O)C2C(=O)N(C(C)C)C(=O)C21 (centres undefined)
IC50 [10]: > 100 µM (inactive) | IC50 [12]: > 100 µM (not active)

O=C(NCc1ccc(Cl)cc1)c1ccc2[nH]cnc2c1
IC50 [10]: > 100 µM (inactive) | IC50 [12]: > 100 µM (not active)

O=C(Nc1cccc(NS(=O)(=O)c2ccc(S(=O)(=O)NC3CC3)cc2)c1)c1ccccn1
EC50 [16]: > 79.4 µM (not active) | EC50 [17]: > 79.4 µM (not active) | EC50 [18]: > 79.4 µM (not active)

Cc1cc(NC(=O)c2ccc(OCC3CCCO3)cc2)ccc1Br (centres undefined)
AC50 [19]: 26 µM (active)

COc1cc2c3c(c1OC)C1(C=CC(=O)C=C1)CC3N(C(=O)CCC(=O)O)CC2 (centres undefined)
IC50 (Protein Tat): > 100 µM (active)

O=C1C(Cl)=C(N2CCN(CCOCCO)CC2)C(=O)N1c1ccc([N+](=O)[O-])cc1
IC50 (Bcl-2-related protein A1 [20]): 3.51 µM (active) | IC50 [21]: > 100 µM (not active) | IC50 (Bcl-2-related protein A1 [22]): 2.59 µM (active)

Cc1csc(NC(=O)c2sccc2C)n1
AC50 [19]: 26 µM (active)

CCOC(=O)c1s/c(=N\C(=O)c2ccc(OC)c(OC)c2)n(C)c1C
EC50 [16]: 8.1 µM (active) | EC50 [17]: 11.4 µM (not active) | EC50 [18]: 12.2 µM (not active)

O=C1C(Cl)=C(Cl)C(=O)N1c1c(Cl)cccc1Cl
IC50 (Bcl-2-related protein A1 [20]): 30 µM (active) | IC50 [21]: > 100 µM (not active) | IC50 (Bcl-2-related protein A1 [22]): > 100 µM (not active)

Clc1ccc(-n2nnc(-c3cccnc3Cl)n2)cc1Cl
IC50 (Bcl-2-related protein A1 [20]): > 100 µM (not active) | IC50 (Bcl-2-related protein A1 [22]): > 100 µM (not active)

COc1ccc(/N=C2/S/C(=C\c3ccc(C)o3)C(=O)N2CC(C)C)cc1
IC50 (Protein Tat): > 100 µM (active)

O=C(Nc1ccccc1)c1cc(C2CCCN(C(=O)C3CC3)C2)on1 (centres undefined)
AC50 [1]: 49.2 µM (active) | AC50 [3]: 7.27 µM (active) | AC50 [4]: 4.34 µM (active) | AC50 [8]: > 52 µM (inactive) | AC50 [9]: 46.4 µM (active)

COCOC1CCC2C3CCC4=CC(=O)CCC4=C3C=CC12C (centres undefined)
IC50 (Protein Tat): > 100 µM (active)

O=C1C(Cl)=C(N2CCN(c3ccc(Cl)cc3)CC2)C(=O)N1c1ccc(Cl)c(Cl)c1
IC50 (Bcl-2-related protein A1 [20]): > 100 µM (not active) | IC50 [21]: > 100 µM (not active) | IC50 (Bcl-2-related protein A1 [22]): > 100 µM (not active)
